Data as given in PubChem BioAssay (NCI).
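Exposure lasted 48 hours, with cells grown in 96-well plates and compounds tested at five concentrations. GI50: concentration for 50% inhibition of growth. TGI marks complete inhibition of growth.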

Columns and labels:
Test in all cases: NCI tumour cell line growth inhibition, 48 h
[1] = system: 786-0 renal
[2] = system: A498 renal
[3] = system: CCRF-CEM leukemia
[4] = system: DU-145 prostate
[5] = system: HCT-116 colon
[6] = system: HT29 colon
[7] = system: IGROV1 ovarian
[8] = system: KM12 colon
[9] = system: NCI-H23 lung
[10] = system: SW-620 colon

| SMILES | TGI [1] [µM] | TGI [2] [µM] | TGI [3] [µM] | TGI [4] [µM] | TGI [5] [µM] | TGI [6] [µM] | TGI [7] [µM] | TGI [8] [µM] | TGI [9] [µM] | TGI [10] [µM] | GI50 [6] [µM] | GI50 [8] [µM] | GI50 [9] [µM] | GI50 [10] [µM] | GI50 [3] [µM] | GI50 [4] [µM] | GI50 [5] [µM] | GI50 [7] [µM] | GI50 [2] [µM] |
| --- | --- | --- | --- | --- | --- | --- | --- | --- | --- | --- | --- | --- | --- | --- | --- | --- | --- | --- | --- |
| N#C/C=C1\C=CC(O)C(O)C1OC1OC(CO)C(O)C(O)C1O (stereo not drawn) | > 100 | > 100 | > 100 | > 100 | > 100 | > 100 | > 100 | > 100 | > 100 | > 100 | – | – | – | – | – | – | – | – | – |
| O=S(=O)(c1ccc(I)cc1)N(c1ccccc1)S(=O)(=O)C(F)(F)C(F)(F)C(F)(F)C(F)(F)F | > 100 | – | > 100 | > 100 | 44.6 | 51.2 | > 100 | > 100 | > 100 | > 100 | – | – | – | – | – | – | – | – | – |
| O=S(=O)(O)c1c(N=Nc2c(O)ccc3ccccc23)ccc2ccccc12 | > 100 | > 100 | > 100 | > 100 | > 100 | > 100 | > 100 | > 100 | > 100 | > 100 | – | – | – | – | – | – | – | – | – |
| O=C(O)C1CC(c2ccccc2)=NN1c1ccccc1 (stereo not drawn) | > 100 | > 100 | > 100 | > 100 | > 100 | > 100 | > 100 | > 100 | > 100 | > 100 | – | – | – | – | – | – | – | – | – |
| COc1cccc(-c2nc3c(C(=O)NCCN(C)C)cccc3[nH]2)c1 | – | 32.1 | > 81.6 | – | 44.2 | 42 | 53.9 | > 72 | 50.8 | > 54.6 | – | – | – | – | – | – | – | – | – |
| O=C1/C(=C\c2ccc(-c3ccc(Cl)cc3Cl)o2)SC2N=C(COc3ccc(Cl)cc3)NN12 (stereo not drawn) | > 100 | 5.98 | > 100 | > 100 | > 100 | > 100 | > 100 | > 100 | > 100 | > 100 | – | – | – | – | – | – | – | – | – |
| S=C1N(c2ccc(Cl)cc2)C2=C(N=Nc3ccccc3)C(=Nc3ccccc3S2)N1c1ccccn1 | 28.1 | 17.2 | 22.9 | 27.8 | 27.1 | 35.6 | 1.47 | 23.8 | 37.4 | 34.9 | – | – | – | – | – | – | – | – | – |
| [C-]#[O+].[C-]#[O+].[Ir].[O-]c1cccc2cccnc12 | – | – | – | – | – | > 100 | > 100 | > 100 | > 100 | > 100 | > 100 | > 100 | > 100 | > 100 | – | – | – | – | – |
| O=S(O)c1cc(Cl)cc(Cl)c1O | – | > 100 | > 100 | – | > 100 | > 100 | – | > 100 | > 100 | – | – | – | – | – | – | – | – | – | – |
| COc1ccc(SC(C)(SC)c2ccccn2)c(OC)n1 (stereo not drawn) | > 100 | > 100 | – | > 100 | > 100 | > 100 | > 100 | > 100 | > 100 | > 100 | – | – | – | – | – | – | – | – | – |
| Oc1cc2cccc[n+]2c2cccc(Cl)c12 | – | – | 73.7 | – | – | – | – | – | 72.5 | – | 40.7 | – | 25.2 | 32.8 | 26.1 | 62.3 | 55.7 | 31.4 | – |
| c1ccc2sc(C3(N4CCCCC4)CCCC3)cc2c1 | 28.9 | 25.7 | 17.7 | 24 | 19.9 | 13.5 | 23.6 | 23.4 | 17.6 | 24.1 | – | – | – | – | – | – | – | – | – |
| CC1(C)COC(/C=C/C2=NC(C)(C)CO2)=N1 | – | 25.4 | 28.8 | 44.1 | 25.9 | 98.4 | 50.6 | 37.1 | 58.1 | 26.9 | – | – | – | – | – | – | – | – | – |
| O=C1c2ccccc2-c2ccc(N=[N+]([O-])c3ccc4c(c3)C(=O)c3ccccc3-4)cc21 | > 100 | > 100 | > 100 | > 100 | > 100 | > 100 | > 100 | > 100 | > 100 | > 100 | – | – | – | – | – | – | – | – | – |
| CC(O)C(O)C(N)CC=O (stereo not drawn) | – | > 50 | > 500 | – | > 500 | > 500 | > 500 | > 500 | > 500 | > 185 | – | – | – | – | – | – | – | – | – |
| COC(=O)C1=CC[C@@H]2C(C(=O)O)=CO[C@@H](OC3OC(CO)C(O)C(O)C3O)[C@H]12 (stereo partly drawn) | – | > 30 | > 119 | – | > 300 | > 300 | > 300 | > 300 | > 300 | > 300 | – | – | – | – | – | – | – | – | – |
| O=C(/C=C/c1ccc(O)cc1)NCCc1ccc(O)cc1 | > 12.5 | > 12.5 | 11.4 | > 12.5 | > 12.5 | > 12.5 | > 12.5 | > 12.5 | > 12.5 | > 12.5 | – | – | – | – | – | – | – | – | – |
| CC(=O)OCC1OC(O[C@@H]2c3c(O)c4c(c(O)c3C3=C(NN(c5ccc([N+](=O)[O-])cc5[N+](=O)[O-])[Se]3=O)[C@@]2(C)O)C(=O)c2ccccc2C4=O)C(OC(C)=O)C(OC(C)=O)C1OC(C)=O (stereo partly drawn) | 0.296 | 1.11 | 1.08 | 1.84 | 0.295 | 0.57 | 1.09 | 1.58 | 0.698 | 0.339 | – | – | – | – | – | – | – | – | – |
| CN(C)Cc1ccc(C(=O)Nc2ccc3ncnc(Nc4ccc(Oc5cccc(F)c5)c(Cl)c4)c3c2)cc1 | – | 2.71 | 4.65 | 2.91 | – | – | 2.6 | 3.21 | 3.09 | 3.31 | – | 1.75 | 1.58 | 1.76 | 1.65 | 1.55 | – | 1.12 | 1.35 |
| C[N+]1(C)CCC(C#N)(c2ccccc2)CC1 | > 100 | > 100 | > 100 | > 100 | > 100 | > 100 | > 100 | > 100 | > 100 | > 100 | – | – | – | – | – | – | – | – | – |
| CC(C)C(N=Cc1ccccc1O)C(=O)O (stereo not drawn) | > 100 | > 100 | > 100 | > 100 | > 100 | > 100 | > 100 | > 100 | > 100 | > 100 | – | – | – | – | – | – | – | – | – |
| Fc1ccc(-c2ccc(-c3nnc(-c4cc(F)c(Cl)cc4Cl)o3)o2)cc1Cl | – | – | > 100 | > 100 | – | 50.9 | > 100 | 74.1 | > 100 | 98.3 | 22.7 | 26.1 | 47.9 | 31.9 | 35 | 29.5 | – | 30.1 | – |
